Assays:
Type in all cases: biochemical
[1] = target: T1, JAK1 (Homo sapiens, UniProt P23458); test: JAK1 inhibition (Table 4); conditions: read-out: JAK1 Ki
T1 construct: made in house; host or cells: SF9 insect cells (baculovirus)

[2] = target: T2, JAK2 (Homo sapiens, UniProt O60674); test: JAK2 inhibition (Table 4); conditions: read-out: JAK2 Ki
T2 construct: made in house; host or cells: SF9 insect cells (baculovirus)

[3] = target: T3, TYK2 (Homo sapiens, UniProt P29597); test: TYK2 inhibition (Table 4)
T3 construct: made in house; host or cells: SF9 insect cells (baculovirus)
T3 sequence (P29597 873-1187): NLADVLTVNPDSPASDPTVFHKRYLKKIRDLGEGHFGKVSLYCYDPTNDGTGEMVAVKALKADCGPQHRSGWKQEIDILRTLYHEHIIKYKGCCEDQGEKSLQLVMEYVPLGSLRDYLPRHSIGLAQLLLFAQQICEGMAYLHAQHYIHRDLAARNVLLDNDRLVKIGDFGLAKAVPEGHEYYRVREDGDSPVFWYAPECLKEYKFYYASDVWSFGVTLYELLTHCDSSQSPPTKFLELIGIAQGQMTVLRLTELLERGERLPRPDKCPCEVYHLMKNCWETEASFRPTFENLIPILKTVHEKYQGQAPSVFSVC

[4] = target: T4, JAK3 (Homo sapiens, UniProt P52333); test: JAK3 inhibition (Table 4); conditions: read-out: JAK3 Ki
T4 construct: made in house; host or cells: SF9 insect cells (baculovirus)
T4 sequence (P52333 783-1124): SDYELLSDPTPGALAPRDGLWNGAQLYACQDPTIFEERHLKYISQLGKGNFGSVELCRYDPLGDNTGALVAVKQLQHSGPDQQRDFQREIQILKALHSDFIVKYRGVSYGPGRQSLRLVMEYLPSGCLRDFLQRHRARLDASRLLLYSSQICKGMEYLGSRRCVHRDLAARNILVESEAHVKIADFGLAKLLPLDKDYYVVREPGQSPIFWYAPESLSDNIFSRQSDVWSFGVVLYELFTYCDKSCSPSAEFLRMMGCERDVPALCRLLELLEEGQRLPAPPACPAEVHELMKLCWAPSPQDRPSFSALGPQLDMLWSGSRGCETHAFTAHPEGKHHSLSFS

T2 sequence (O60674 812-1132): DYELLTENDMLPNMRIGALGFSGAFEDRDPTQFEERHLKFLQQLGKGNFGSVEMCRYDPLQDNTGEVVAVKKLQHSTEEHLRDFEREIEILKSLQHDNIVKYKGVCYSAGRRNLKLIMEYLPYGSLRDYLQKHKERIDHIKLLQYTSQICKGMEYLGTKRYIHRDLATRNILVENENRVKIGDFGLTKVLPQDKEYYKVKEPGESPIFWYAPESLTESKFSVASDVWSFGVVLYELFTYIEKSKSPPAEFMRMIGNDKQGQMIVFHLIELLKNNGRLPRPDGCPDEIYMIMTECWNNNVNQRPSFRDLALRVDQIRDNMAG
T1 sequence (P23458 852-1154): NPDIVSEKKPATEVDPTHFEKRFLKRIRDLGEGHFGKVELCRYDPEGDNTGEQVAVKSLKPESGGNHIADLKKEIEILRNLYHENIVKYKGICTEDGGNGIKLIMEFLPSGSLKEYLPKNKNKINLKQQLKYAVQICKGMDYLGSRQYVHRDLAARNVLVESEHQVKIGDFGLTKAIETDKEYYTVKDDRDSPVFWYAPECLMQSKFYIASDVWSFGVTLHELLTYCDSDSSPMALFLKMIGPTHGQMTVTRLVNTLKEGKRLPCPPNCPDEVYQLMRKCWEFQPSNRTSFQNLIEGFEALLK

| Ki [1] [µM] | Ki [2] [µM] | Ki [3] [µM] | Ki [4] [µM] | SMILES |
| --- | --- | --- | --- | --- |
| 0.0131 | 0.116 | 0.191 | 0.0709 | CC(=O)NCc1nc2cnc3[nH]ccc3c2n1C1CCN(CCF)CC1 [Example 921, N-{1-[1-(2-Fluoro-ethyl)-piperidin-4-yl]-1,6-dihydro-1,3,5,6-tetraaza-as-indacen-2-ylmethyl}-acetamide] |
| 0.00786 | 0.00921 | 0.0688 | 0.00996 | N#CCCN1CCC(n2c(C(F)(F)F)nc3cnc4[nH]ccc4c32)CC1 [Example 256, 3-[4-(-2-Trifluoromethyl-6H-1,3,5,6-tetraaza-as-indacen-1-yl)-piperidin-1-yl]-propionitrile] |
| 0.00159 | 0.0085 | 0.01 | 0.0226 | OCc1nc2cnc3[nH]ccc3c2n1C1CCN(CC(F)(F)F)CC1 [Example 761, {1-[1-(2,2,2-Trifluoro-ethyl)-piperidin-4-yl]-1,6-dihydro-1,3,5,6-tetraaza-as-indacen-2-yl}-methanol] |
| 0.0249 | 0.0816 | 0.315 | 0.244 | Cc1ccnn1CCc1nc2cnc3[nH]ccc3c2n1C1CCN(CCC#N)CC1 [Example 410, 3-(4-{2-[2-(5-Methyl-pyrazol-1-yl)-ethyl]-6H-1,3,5,6-tetraaza-as-indacen-1-yl}-piperidin-1-yl)-propionitrile] |
| 0.0221 | 0.0992 | 2.1 | 0.0169 | O=C(Cc1nc2cnc3[nH]ccc3c2n1C1CCN(Cc2ccccc2)CC1)N1CCCC1 [Example 100, 2-[1-(1-Benzyl-piperidin-4-yl)-1,6-dihydro-1,3,5,6-tetraaza-as-indacen-2-yl]-1-pyrrolidin-1-yl-ethanone] |
| 0.0035 | 0.0113 | 0.194 | 0.0142 | OCCc1nc2cnc3[nH]ccc3c2n1C1CCN(Cc2ccccc2)CC1 [Example 82] |
| 0.0553 | 0.152 | 0.401 | 0.0191 | CN(C(=O)Cc1nc2cnc3[nH]ccc3c2n1C1CCN(CCC#N)CC1)C1CCCC1 [Example 263, 2-{1-[1-(2-Cyano-ethyl)-piperidin-4-yl]-1,6-dihydro-1,3,5,6-tetraaza-as-indacen-2-yl}-N-cyclopentyl-N-methyl-acetamide] |
| 0.0262 | 0.307 | 0.877 | 0.855 | C[C@H](O)c1nc2cnc3[nH]ccc3c2n1[C@@H]1CCCN(C(=O)CC#N)C1 [Example 662, 3-{(R)-3-[2-((S)-1-Hydroxy-ethyl)-6H-1,2,3,5,6-tetraaza-as-indacen-1-yl]-piperidin-1-yl}-3-oxo-propionitrile] |
| 0.0129 | 0.669 | 0.465 | 0.549 | CC(O)CN1CCC(n2c(C(C)O)nc3cnc4[nH]ccc4c32)CC1 (centres unmarked) [Example 934, 1-{4-[2-(1-Hydroxy-ethyl)-6H-1,3,5,6-tetraaza-as-indacen-1-yl]-piperidin-1-yl}-propan-2-ol] |

The remaining lines, values behind:

| SMILES | Ki [1] [µM] | Ki [2] [µM] | Ki [3] [µM] | Ki [4] [µM] |
| --- | --- | --- | --- | --- |
| c1cc2c(ncc3ncn(C4CCN(C5CCOCC5)CC4)c32)[nH]1 [Example 85, 1-[-(Tetrahydro-pyran-4-yl)-piperidin-4-yl]-1,6-dihydro-1,3,5,6-tetraaza-as-indacene] | 0.0322 | 0.0643 | 0.153 | 0.716 |
| C[C@@H](O)c1nc2cnc3[nH]ccc3c2n1C1CCC(n2cncn2)CC1 (stereo partly drawn) [Example 779, (R)-1-[1-(4-[1,2,4]triazol-1-yl-cyclohexyl)-1,6-dihydro-1,3,5,6-tetraaza-as-indacen-2-yl]-ethanol] | 0.00487 | 0.0738 | 0.0391 | 0.233 |
| c1cc2c(ncc3nc(C4CCCN4)n(C4CCCOC4)c32)[nH]1 (single isomer, unassigned) [Example 668] | 1.02 | 2.94 | 3.24 | 2.62 |
| O=C(C1CCC1)N1CCC[C@@H](n2cnc3cnc4[nH]ccc4c32)C1 [Example 315, Cyclobutyl-[(R)-3-(6H-1,3,5,6-tetraaza-as-indacen-1-yl)-piperidin1-yl]-methanone] | 0.0057 | 0.00628 | 0.0292 | 0.0413 |
| c1cc2c(ncc3ncn(CC4CCNC4)c32)[nH]1 (racemic) [Example 490, 1-Pyrrolidin-3-ylmethyl-1,6-dihydro-1,3,5,6-tetraaza-as-indacene] | 0.391 | 1.11 | 3.43 | 1.87 |
| OC1CCCC(n2cnc3cnc4[nH]ccc4c32)C1 (single isomer, unassigned) [Example 561, 3-(6H-1,3,5,6-Tetraaza-as-indacen-1-yl)-cyclohexanol] | 0.00729 | 0.0179 | 0.0245 | 0.0145 |
| O=C(N1CCC[C@@H](n2cnc3cnc4[nH]ccc4c32)C1)C1(C(F)(F)F)CC1 [Example 228, [(R)-3-(6H-1,3,5,6-tetraaza-as-indacen-1-yl)-piperidin-1-yl]-(1-trifluoromethyl-cyclopropyl)-methanone] | 0.0158 | 0.00599 | 0.0434 | 0.118 |
| N#CCCNC1CCC(n2cnc3cnc4[nH]ccc4c32)C1 (racemic) [Example 300, 3-[3-(6H-1,3,5,6-Tetraaza-as-indacen-1-yl)-cyclopentylamino]-propionitrile] | 0.00781 | 0.0183 | 0.0659 | 0.0288 |
| CCN1CC[C@@H](n2c(CCNC(C)=O)nc3cnc4[nH]ccc4c32)[C@@H](F)C1 [Example 811, N-{2-[1-((3S,4R)-1-Ethyl-3-fluoro-piperidin-4-yl)-1,6-dihydro-1,3,5,6-tetraaza-as-indacen-2-yl]-ethyl}-acetamide] | 0.00678 | 0.0629 | 0.519 | 0.13 |
| Cc1nn(C)cc1S(=O)(=O)N1CCC(n2cnc3cnc4[nH]ccc4c32)CC1 [Example 448, 1-[1-(1,3-Dimethyl-1H-pyrazole-4-sulfonyl)-piperidin-4-yl]-1,6-dihydro-1,3,5,6-tetraaza-as-indacene] | 0.0344 | 0.0357 | 0.268 | 0.873 |
| c1cc2c(ncc3ncn(C4CCCOC4)c32)[nH]1 (single isomer, unassigned) [Example 465, 1-(Tetrahydro-pyran-3-yl)-1,6-dihydro-1,3,5,6-tetraaza-as-indacene] | 0.0235 | 0.0499 | 0.0706 | 0.0508 |
| COC1CN(C)CCC1n1c(C)nc2cnc3[nH]ccc3c21 (racemic) [Example 534, 1-(3-Methoxy-1-methyl-piperidin-4-yl)-2-methyl-1,6-dihydro-1,3,5,6-tetraaza-as-indacene] | 0.00986 | 0.0244 | 0.15 | 0.0889 |
| CS(=O)(=O)NCc1nc2cnc3[nH]ccc3c2n1C1CC2CCC1O2 (single isomer, unassigned) [Example 849, endo-N-[1-(7-Oxa-bicyclo[2.2.1]hept-2-yl)-1,6-dihydro-1,3,5,6-tetraaza-as-indacen-2-ylmethyl]-methanesulfonamide] | 0.0508 | 0.515 | 0.459 | 0.592 |
| CC(C)CC(=O)N[C@H]1CC[C@H](n2cnc3cnc4[nH]ccc4c32)CC1 [Example 215, 3-Methyl-N-[4-(6H-1,2,3,5,6-tetraaza-as-indacen-1-yl)-cyclohexyl]-butyramide] | 0.00189 | 0.00788 | 0.0927 | 0.0559 |

From patent US8461328B2, “Tricyclic heterocyclic compounds, compositions and methods of use thereof” (Genentech, Inc., priority 2010, dated 2013)
